Measured values as given in patent US8211899B2, “Artificial nucleic acid bases and their use in base pairing natural nucleic acid bases” (Inter-University Research Institute Corporation National …, priority 2005, dated 2012).
Where two headings read alike, the source gives them in different places.

Legend:
1-methylthymine (T) = test: test of base pair formation by UV absorbance change versus mixing ratio; assay type: binding; details: mixture with T, total 7.5 mmol/L, mol ratio 0:10 to 10:0, anhydrous DMSO, 25° C., 12 hr
Protocol: The test of base pair formation was carried out in the following way. The concentration of the mixture of PPT and one of respective N-methylated natural nucleic acid bases (1-methylcytosine (herein after, referred to as “C”), 1-methylthymine (hereinafter, referred to as “T”). 9-methyladenine (hereinafter, referred to as “A”), and 9-methylguanine (hereinafter, referred to as “G”)) was kept constant at 7.5 mmol/L and the ratio (mol ratio) of the mixture was varied from 0:10 to 10:0. The mixture was dissolved at 25° C. in anhydrous dimethyl sulfoxide (DMSO), which had been removed oxygen by freezing-degas method, dissolved argon gas, mixed with DMSO solution of substrates prepared before hand, and allowed to leave for overnight (12 hr.). Then, the change of absorbance in ultraviolet wavelength region was measured according to the following conditions: • (1) The measuring equipment, JASCO V-550 SERIAL NO. C02951260; • (2) The thermal controller, JASCO PSC-498T; • (3) The cell, GL Science Type: AB20-SQ-0.1 (Optical path is 0.1 mm); • (4) The cell adopter, CAS-10-1; • (5) The measured wavelength region, 200-350 nm.
The absorbance of substrates is proportional to a mixing ratio of the substrates (Beer's law) in the case of no interaction between substrates.
For comparison, the base pair formation was examined for A and T, and G and T similarly to Example 3.

[1] = solubility test in solvents at 1 to 100 mM; assay type: physicochemical; details: for solubility: warmed to 50° C. and cooled to 27° C.; for solubility in water and organic solvents: water and various organic solvents
Protocol: The solubility of PPT obtained in Example 1 was examined. For comparison, the solubility of a PPT derivative, wherein R is H in chemical formula I (hereinafter, referred to as “PPT(H)”). For the solubility test, each solvent listed in Table I was used, and the concentration of solute was 1 to 100 mM. The solution with respective concentrations was warmed once to 50° C. and cooled to 27° C. The solution with residues was referred to as “insoluble”, in the contrast the solution without residues was referred to as “soluble”. The concentration of the buffer was 100 mM and the pH was 7.0.

1-methylcytosine (C) = test: test of base pair formation by UV absorbance change versus mixing ratio; assay type: binding; details: mixture with C, total 7.5 mmol/L, mol ratio 0:10 to 10:0, anhydrous DMSO, 25° C., 12 hr
Protocol: (§1) The test of base pair formation was carried out in the following way. […] The mixture was dissolved at 25° C. in anhydrous dimethyl sulfoxide (DMSO), which had been removed oxygen by freezing-degas method, dissolved argon gas, mixed with DMSO solution of substrates prepared before hand, and allowed to leave for overnight (12 hr.). Then, the change of absorbance in ultraviolet wavelength region was measured according to the following conditions: • (1) The measuring equipment, JASCO […]IAL NO. C02951260; • (2) The thermal controller, JASCO PSC-498T; • (3) The cell, GL Science Type: AB20-SQ-0.1 (Optical path is 0.1 mm); • (4) The cell adopter, CAS-10-1; • (5) The measured wavelength region, 200-350 nm. The absorbance changed in accordance with the mixing ratios. Plot of the absorbance change versus to mixing ratios at a wavelength, where the absorbance change was observed, are shown in FIG. 2. The absorbance of substrates is proportional to a mixing ratio of the substrates (Beer's law) in the case of no interaction between substrates.

9-methyladenine (A) = test: as above; assay type: binding; details: mixture with A, total 7.5 mmol/L, mol ratio 0:10 to 10:0, anhydrous DMSO, 25° C., 12 hr
Protocol: as §1

9-methylguanine (G) = test: as above; assay type: binding; details: mixture with G, total 7.5 mmol/L, mol ratio 0:10 to 10:0, anhydrous DMSO, 25° C., 12 hr
Protocol: as §1

[2] = TBE buffer 100 mM pH 7.0, concentration 1 mM
[3] = TBE buffer 100 mM pH 7.0, concentration 100 mM
[4] = phosphate buffer 100 mM pH 7.0, concentration 1 mM
[5] = phosphate buffer 100 mM pH 7.0, concentration 100 mM
[6] = DMF, 27 °C, organic solvent or mixture, thermodynamic from solid, DMF, concentration 1 mM, read-out: solubility
[7] = DMF, 27 °C, organic solvent or mixture, thermodynamic from solid, DMF, concentration 100 mM, read-out: solubility
[8] = DMSO, 27 °C, organic solvent or mixture, thermodynamic from solid, DMSO, concentration 1 mM, read-out: solubility
[9] = DMSO, 27 °C, organic solvent or mixture, thermodynamic from solid, DMSO, concentration 100 mM, read-out: solubility
[10] = TBE buffer, 27 °C, pH 7, aqueous buffer, thermodynamic from solid, TBE buffer 100 mM pH 7.0, concentration 1 mM, read-out: solubility
[11] = TBE buffer, 27 °C, pH 7, aqueous buffer, thermodynamic from solid, TBE buffer 100 mM pH 7.0, concentration 100 mM, read-out: solubility
[12] = methanol, 27 °C, organic solvent or mixture, thermodynamic from solid, methanol, concentration 1 mM, read-out: solubility
[13] = methanol, 27 °C, organic solvent or mixture, thermodynamic from solid, methanol, concentration 100 mM, read-out: solubility
[14] = phosphate buffer, 27 °C, pH 7, aqueous buffer, thermodynamic from solid, phosphate buffer 100 mM pH 7.0, concentration 1 mM, read-out: solubility
[15] = phosphate buffer, 27 °C, pH 7, aqueous buffer, thermodynamic from solid, phosphate buffer 100 mM pH 7.0, concentration 100 mM, read-out: solubility
[16] = water, 27 °C, water, thermodynamic from solid, water, concentration 1 mM, read-out: solubility
[17] = water, 27 °C, water, thermodynamic from solid, water, concentration 100 mM, read-out: solubility

Row | SMILES | base pair formation: deviation of absorbance plot from the linear line by Beer's law (1-methylthymine (T)) | solubility ([1]; DMF, concentration 1 mM) | solubility ([1]; DMF, concentration 100 mM) | solubility ([1]; DMSO, concentration 1 mM) | solubility ([1]; DMSO, concentration 100 mM) | solubility [1, 2] | solubility [1, 3] | solubility ([1]; methanol, concentration 1 mM) | solubility ([1]; methanol, concentration 100 mM) | solubility [1, 4] | solubility [1, 5] | solubility ([1]; water, concentration 1 mM) | solubility ([1]; water, concentration 100 mM) | further results
1 | Cn1cnc2c(N)ncnc21 [A, 9-methyladenine] | deviation from the linear line | – | – | – | – | – | – | – | – | – | – | – | – | –
2 | O=c1[nH]c(=O)c2c(=O)[nH]c(=O)n(CCO)c2[nH]1 [CH2CH2OH] | – | S (S: soluble) | Ins (Ins: insoluble) | S (S: soluble) | Ins (Ins: insoluble) | S (S: soluble) | Ins (Ins: insoluble) | S (S: soluble) | Ins (Ins: insoluble) | S (S: soluble) | Ins (Ins: insoluble) | S (S: soluble) | Ins (Ins: insoluble) | –
3 | C=CCn1c(=O)[nH]c(=O)c2c(=O)[nH]c(=O)[nH]c21 [CH2CH═CH2] | – | S (S: soluble) | S (S: soluble) | S (S: soluble) | S (S: soluble) | S (S: soluble) | Ins (Ins: insoluble) | S (S: soluble) | Ins (Ins: insoluble) | S (S: soluble) | Ins (Ins: insoluble) | S (S: soluble) | Ins (Ins: insoluble) | –
4 | O=C(O)Cn1c(=O)[nH]c(=O)c2c(=O)[nH]c(=O)[nH]c21 [CH2COOH] | – | S (S: soluble) | Ins (Ins: insoluble) | S (S: soluble) | Ins (Ins: insoluble) | S (S: soluble) | S (S: soluble) | S (S: soluble) | Ins (Ins: insoluble) | S (S: soluble) | S (S: soluble) | S (S: soluble) | S (S: soluble) | –
5 | Cn1cnc2c(=O)[nH]c(N)nc21 [G, 9-methylguanine] | no deviation from the linear line | – | – | – | – | – | – | – | – | – | – | – | – | –
6 | O=c1[nH]c(=O)c2c(=O)[nH]c(=O)[nH]c2[nH]1 [PPT(H), pyrimido [4,5-d]pyrimidine-2,4,5,7-tetraone, reference compound] | – | – | – | – | – | – | – | – | – | – | – | – | – | solubility [1, 6]: < 100 mM; solubility [1, 7]: < 100 mM; solubility [1, 8]: < 100 mM; solubility [1, 9]: < 100 mM; solubility [1, 10]: < 100 mM; solubility [1, 11]: < 100 mM; solubility [1, 12]: < 100 mM; solubility [1, 13]: < 100 mM; solubility [1, 14]: < 100 mM; solubility [1, 15]: < 100 mM; solubility in water and organic solvents [1]: insoluble; solubility in water and organic solvents ([1]; listed as unsubstituted form of pyrimido [4,5-d] pyrimidine -2,4,5,7-tetraone): extremely low; solubility [1, 16]: < 100 mM; solubility [1, 17]: < 100 mM
7 | CC(C)(C)[Si](OCCn1c(=O)[nH]c(=O)c2c(=O)[nH]c(=O)[nH]c21)(c1ccccc1)c1ccccc1 [PPT, 1-[2-(t-butyl-diphenyl-silyloxy)-ethyl]-1H, 8H-pyrimido [4,5-d]pyrimidine-2,4,5,7-tetraone] | large deviation from the linear line | – | – | – | – | – | – | – | – | – | – | – | – | solubility [1, 6]: > 1 mM; solubility [1, 7]: > 1 mM; solubility [1, 8]: > 1 mM; solubility [1, 9]: > 1 mM; solubility [1, 10]: > 1 mM; solubility [1, 11]: < 100 mM; solubility [1, 12]: > 1 mM; solubility [1, 13]: < 100 mM; solubility [1, 14]: > 1 mM; solubility [1, 15]: < 100 mM; solubility [1, 16]: > 1 mM; solubility [1, 17]: < 100 mM; base pair formation: deviation of absorbance plot from the linear line by Beer's law (1-methylcytosine (C)): large deviation from the linear line; base pair formation: deviation of absorbance plot from the linear line by Beer's law (9-methyladenine (A)): large deviation from the linear line; base pair formation: deviation of absorbance plot from the linear line by Beer's law (9-methylguanine (G)): large deviation from the linear line
